Where a name gives a salt, the structure may show the parent alone. Read-outs that look alike come from different tables or passages of the source.
What was measured:
Type in all cases: biochemical
[1] = target: T1, ERK1 (Homo sapiens, UniProt P27361); test: ERK1 protein kinase assay; conditions: for remaining activity at 10 µM: 10 μM compound; for residual kinase activity ERK1: 1 μm compound; for remaining activity at 1 µM: 1 μM compound
T1 construct: All protein kinases were of human origin and encoded full length proteins, unless indicated otherwise; GST; made in house; host or cells: E. coli
T1 sequence (P27361 whole entry): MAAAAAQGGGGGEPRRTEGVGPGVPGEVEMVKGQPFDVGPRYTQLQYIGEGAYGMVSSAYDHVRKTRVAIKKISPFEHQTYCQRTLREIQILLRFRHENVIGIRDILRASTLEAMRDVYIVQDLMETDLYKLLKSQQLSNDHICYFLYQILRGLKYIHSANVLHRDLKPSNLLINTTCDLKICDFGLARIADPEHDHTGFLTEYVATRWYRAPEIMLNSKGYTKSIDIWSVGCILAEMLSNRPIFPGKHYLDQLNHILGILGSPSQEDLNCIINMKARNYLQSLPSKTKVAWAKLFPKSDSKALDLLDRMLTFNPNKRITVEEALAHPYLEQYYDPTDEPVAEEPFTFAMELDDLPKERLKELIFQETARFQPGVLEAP
Excerpt: (§1) All protein kinases were of human origin and encoded full length proteins, unless indicated otherwise. They were either expressed as glutathione S-transferase (GST) fusion proteins in Escherichia Coli or as hexahistidine (His6)-tagged proteins in insect Sf21 cells. GST fusion proteins were purified by affinity chromatography on glutathione-Sepharose, and His6-tagged proteins on nickel/nitriloacetate-agarose. The procedures for expressing some of the protein kinases used herein have been detailed previously.^8,9 The following sections outline the DNA vectors synthesised and the procedures used to express and purifying protein kinases that have not been reported previously.
(§2) The following proteins were expressed in E. coli: —CHK2[5-543], cyclin-dependent protein kinase 2 (CDK2), MAP kinase-interacting kinase 2 (MNK2), extra-cellular signal-regulated kinase 1 (ERK1).
(§3) In order to produce activated forms of Aurora B and Aurora C, insect Sf21 cells were incubated for 1 h with the protein phosphatase inhibitor okadaic acid (50 nM). JNK isoforms were activated with MKK4 and MKK7, MNK2 with p38α MAPkinase; PKBα, PKBβ, with PDK1, and ERK1 with MKK1. To activate CDK2, bacterial pellets expressing cyclin A2 and CDK2 were mixed together, lyse and purified on glutathione Sepharose. The GST-tags were removed by cleavage with PreScission protease and the CDK2-cyclin A2 complex purified by chromatography on SP-Sepharose. It was then activated with CAK1/CDK7 followed by chromatography on nickel-nitrilotriacetate agarose to remove CAK1/CDK7, which binds to this column by virtue of its C-terminal His6 tag. All the other protein kinases were active as expressed.
(§4) All assays (25.5 μl) were carried out at room temperature (21° C.) and were linear with respect to time and enzyme concentration under the conditions used. Assays were performed for 30 min using Multidrop Micro reagent dispensers (Thermo Electron Corporation, Waltham, Mass. 02454, USA) in a 96-well format. The concentration of magnesium acetate in the assays was 10 mM and the [γ-33P] ATP (800 cpm/pmol) was used at 5, 20 or 50 μM as indicated, in order to be at or below the Km for ATP for each enzyme. Protein kinases assayed at 5 μM ATP were: —ERK1, ERK8, PKBα, MARK3, Aurora C. Protein kinases assayed at 20 μM ATP were: —JNK1, PDK1, CHK1, CHK2, CDK2 and Aurora B. Protein kinases assayed at 50 μM ATP were: —MNK2, IKKepsilon and TBK1.
(§5) The assays were initiated with MgATP, stopped by addition of 5 μl of 0.5 M orthophosphoric acid and spotted on to P81 filterplates using a unifilter harvester (PerkinElmer, Boston, Mass. 02118, USA). The IC50 values of inhibitors were determined after carrying out assays at 10 different concentrations of each compound.
ERK1 and ERK8 were both assayed against myelin basic protein (MBP, 0.33 mg/ml). MARK3 was assayed against the peptide […] (300 μM), MNK2 against the eIF4E protein (0.5 mg/ml). PKBβ was assayed against the peptide […] (30 μM). TBK1 were assayed against ([…]) (300 μM). The substrates used for other protein kinases were described previously.^8,9
(§6) Unless stated otherwise, enzymes were diluted in 50 mM Tris/HCl pH 7.5, 0.1 mM EGTA, 1 mg/ml BSA, 0.1% (v/v) 2-mercaptoethanol and assayed in 50 mM Tris/HCl pH 7.5, 0.1 mM EGTA, 0.1% (v/v) 2-mercaptoethanol.

[2] = target: T2, SGK1 (Homo sapiens, UniProt O00141, S422D); test: SGK1 protein kinase assay; conditions: for remaining activity at 10 µM: 10 μM compound; for residual kinase activity SGK1: 1 μm compound; for remaining activity at 1 µM: 1 μM compound
T2 construct: All protein kinases were of human origin and encoded full length proteins, unless indicated otherwise; made in house
T2 sequence (O00141 60-431 S422D limits assumed): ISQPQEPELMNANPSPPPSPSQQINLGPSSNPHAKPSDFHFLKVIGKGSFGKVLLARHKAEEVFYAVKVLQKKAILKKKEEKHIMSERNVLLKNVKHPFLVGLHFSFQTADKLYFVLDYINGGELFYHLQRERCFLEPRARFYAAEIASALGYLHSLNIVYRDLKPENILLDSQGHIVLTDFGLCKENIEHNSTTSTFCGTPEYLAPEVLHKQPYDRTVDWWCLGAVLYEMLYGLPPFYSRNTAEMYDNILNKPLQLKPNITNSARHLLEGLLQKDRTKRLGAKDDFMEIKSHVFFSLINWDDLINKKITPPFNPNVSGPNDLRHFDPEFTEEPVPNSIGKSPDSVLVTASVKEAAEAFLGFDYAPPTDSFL
Excerpt: as §1, §4, §5, §6

[3] = target: T3, CDK2-Cyclin A (Homo sapiens, UniProt P24941); test: CDK2-Cyclin A protein kinase assay; conditions: for remaining activity at 10 µM: 10 μM compound; for residual kinase activity CDK2-Cyclin A: 1 μm compound; for remaining activity at 1 µM: 1 μM compound
T3 construct: All protein kinases were of human origin and encoded full length proteins, unless indicated otherwise; GST (cleaved yes); made in house; host or cells: E. coli
Excerpt: as §1, §2, §3, §4, §5, §6

[4] = target: T4, PLK1 (Homo sapiens, UniProt P53350); test: PLK1 protein kinase assay; conditions: for remaining activity at 10 µM: 10 μM compound; for residual kinase activity PLK1: 1 μm compound; for remaining activity at 1 µM: 1 μM compound
T4 construct: All protein kinases were of human origin and encoded full length proteins, unless indicated otherwise; made in house
T4 sequence (P53350 whole entry): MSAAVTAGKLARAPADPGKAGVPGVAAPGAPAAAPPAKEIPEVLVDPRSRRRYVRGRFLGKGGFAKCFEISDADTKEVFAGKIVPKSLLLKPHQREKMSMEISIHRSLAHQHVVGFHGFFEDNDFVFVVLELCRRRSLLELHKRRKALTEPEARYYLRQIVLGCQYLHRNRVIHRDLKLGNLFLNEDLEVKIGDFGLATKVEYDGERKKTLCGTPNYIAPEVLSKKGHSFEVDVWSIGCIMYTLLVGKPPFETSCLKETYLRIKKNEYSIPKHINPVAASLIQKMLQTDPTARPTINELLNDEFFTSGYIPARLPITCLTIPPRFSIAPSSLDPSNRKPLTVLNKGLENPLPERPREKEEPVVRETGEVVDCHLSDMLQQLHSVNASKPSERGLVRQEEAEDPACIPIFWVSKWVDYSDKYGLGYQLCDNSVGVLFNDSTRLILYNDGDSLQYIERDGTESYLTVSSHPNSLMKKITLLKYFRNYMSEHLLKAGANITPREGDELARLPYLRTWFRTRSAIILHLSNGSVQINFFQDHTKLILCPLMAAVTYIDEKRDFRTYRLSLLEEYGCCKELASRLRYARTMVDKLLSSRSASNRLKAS
Excerpt: as §1, §4, §5, §6

[5] = target: T5, PLK1 (Okadaic Acid) (Homo sapiens, UniProt P53350); test: PLK1 (Okadaic Acid) protein kinase assay; conditions: for remaining activity at 10 µM: 10 μM compound; for residual kinase activity PLK1 (Okadaic Acid): 1 μm compound; for remaining activity at 1 µM: 1 μM compound
T5 construct: All protein kinases were of human origin and encoded full length proteins, unless indicated otherwise; made in house; host or cells: probably Sf21 insect cells treated with okadaic acid (inferred from the row name; the text says this only of Aurora B and C)
T5 sequence (P53350 whole entry): as above
Excerpt: as §1, §4, §5, §6

[6] = target: T6, PIM2 (Homo sapiens, UniProt Q9P1W9); test: PIM2 protein kinase assay; conditions: for remaining activity at 10 µM: 10 μM compound; for residual kinase activity PIM2: 1 μm compound; for remaining activity at 1 µM: 1 μM compound
T6 construct: All protein kinases were of human origin and encoded full length proteins, unless indicated otherwise; made in house
T6 sequence (Q9P1W9 whole entry): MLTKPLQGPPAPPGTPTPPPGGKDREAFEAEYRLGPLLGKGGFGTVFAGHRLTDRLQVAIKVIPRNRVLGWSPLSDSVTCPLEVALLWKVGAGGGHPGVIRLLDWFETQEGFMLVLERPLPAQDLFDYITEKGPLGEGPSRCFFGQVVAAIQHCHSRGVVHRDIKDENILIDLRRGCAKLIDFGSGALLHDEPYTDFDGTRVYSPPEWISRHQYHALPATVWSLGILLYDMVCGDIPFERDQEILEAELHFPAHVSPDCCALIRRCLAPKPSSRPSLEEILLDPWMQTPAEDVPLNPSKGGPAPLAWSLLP
Excerpt: as §1, §4, §5, §6

[7] = target: T7, SRPK1 (Homo sapiens, UniProt Q96SB4); test: SRPK1 protein kinase assay; conditions: for remaining activity at 10 µM: 10 μM compound; for residual kinase activity SRPK1: 1 μm compound; for remaining activity at 1 µM: 1 μM compound
T7 construct: All protein kinases were of human origin and encoded full length proteins, unless indicated otherwise; made in house
T7 sequence (Q96SB4 whole entry): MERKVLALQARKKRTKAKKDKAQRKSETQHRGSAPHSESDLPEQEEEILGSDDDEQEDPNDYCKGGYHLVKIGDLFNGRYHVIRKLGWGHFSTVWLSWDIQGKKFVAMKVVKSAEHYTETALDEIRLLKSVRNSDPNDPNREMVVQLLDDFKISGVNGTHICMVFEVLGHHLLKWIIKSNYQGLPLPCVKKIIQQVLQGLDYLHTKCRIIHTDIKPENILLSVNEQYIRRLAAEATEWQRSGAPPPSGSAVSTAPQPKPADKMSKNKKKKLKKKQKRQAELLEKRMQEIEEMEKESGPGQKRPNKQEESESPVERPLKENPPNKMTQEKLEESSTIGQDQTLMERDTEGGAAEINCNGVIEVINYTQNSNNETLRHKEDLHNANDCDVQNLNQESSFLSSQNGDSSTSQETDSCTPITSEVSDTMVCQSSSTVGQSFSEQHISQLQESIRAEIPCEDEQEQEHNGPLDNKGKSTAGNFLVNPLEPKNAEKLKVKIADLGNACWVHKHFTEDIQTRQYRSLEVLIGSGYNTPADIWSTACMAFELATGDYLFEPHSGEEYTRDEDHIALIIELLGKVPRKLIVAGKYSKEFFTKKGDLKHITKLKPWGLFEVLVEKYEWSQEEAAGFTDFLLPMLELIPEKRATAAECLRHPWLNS
Excerpt: as §1, §4, §5, §6

[8] = read-out: residual kinase activity ERK1
[9] = read-out: residual kinase activity SGK1
[10] = read-out: residual kinase activity CDK2-Cyclin A
[11] = read-out: residual kinase activity PLK1
[12] = read-out: residual kinase activity PLK1 (Okadaic Acid)
[13] = read-out: residual kinase activity PIM2
[14] = read-out: residual kinase activity SRPK1
[15] = ERK1, 5 μM ATP, read-out: residual kinase activity
[16] = SGK1, read-out: residual kinase activity
[17] = CDK2-Cyclin A, 20 μM ATP, read-out: residual kinase activity
[18] = PLK1, read-out: residual kinase activity
[19] = PLK1 (Okadaic Acid), read-out: residual kinase activity
[20] = PIM2, read-out: residual kinase activity
[21] = SRPK1, read-out: residual kinase activity

Row | Structure (SMILES) | remaining activity at 10 µM [1, 8] | residual kinase activity ERK1 [1] | remaining activity at 10 µM [2, 9] | residual kinase activity SGK1 [2] | remaining activity at 10 µM [3, 10] | residual kinase activity CDK2-Cyclin A [3] | remaining activity at 1 µM [1, 15] | remaining activity at 10 µM [1, 15] | remaining activity at 1 µM [2, 16] | remaining activity at 10 µM [2, 16] | remaining activity at 1 µM [3, 17] | remaining activity at 10 µM [3, 17] | remaining activity at 1 µM [4, 18] | remaining activity at 10 µM [4, 18] | remaining activity at 1 µM [5, 19] | remaining activity at 10 µM [5, 19] | remaining activity at 1 µM [6, 20] | remaining activity at 10 µM [6, 20] | remaining activity at 1 µM [7, 21] | remaining activity at 10 µM [7, 21] | also measured
1 | O=C(NCCCNc1nc(Nc2cccc(F)c2)ncc1Br)C1CCC1 [Compound A, cyclobutanecarboxylic acid {3-[5-bromo-2-(3-fluoro-phenylamino)-pyrimidin-4-ylamino]-propyl}-amide, reference compound] | 7% | 28% | 18% | 59% | 0% | 1% | – | – | – | – | – | – | – | – | – | – | – | – | – | – | remaining activity at 10 µM [4, 11]: 45%; residual kinase activity PLK1 [4]: 82%; remaining activity at 10 µM [5, 12]: 39%; residual kinase activity PLK1 (Okadaic Acid) [5]: 95%; remaining activity at 10 µM [6, 13]: 75%; residual kinase activity PIM2 [6]: 90%; remaining activity at 10 µM [7, 14]: 31%; residual kinase activity SRPK1 [7]: 69%
2 | O=C(NCCCNc1nc(Nc2cccc(F)c2)ncc1C1CC1)C1CCC1 [Example 23, Cyclobutanecarboxylic acid {3-[5-cyclopropyl-2-(3-fluoro-phenylamino)-pyrimidin-4-ylamino]-propyl}-amide] | 75% | 88% | 64% | 100% | 2% | 17% | 88% | 75% | 100% | 64% | 17% | 2% | 90% | 62% | 66% | 46% | 74% | 67% | 75% | 40% | remaining activity at 10 µM [4, 11]: 62%; residual kinase activity PLK1 [4]: 90%; remaining activity at 10 µM [5, 12]: 46%; residual kinase activity PLK1 (Okadaic Acid) [5]: 66%; remaining activity at 10 µM [6, 13]: 67%; residual kinase activity PIM2 [6]: 74%; remaining activity at 10 µM [7, 14]: 40%; residual kinase activity SRPK1 [7]: 75%
3 | O=C(NCCCNc1nc(Nc2cccc(N3CCCC3=O)c2)ncc1C1CC1)c1cccs1 [Example 47, Thiophene-2-carboxylic acid (3-{5-cyclopropyl-2-[3-(2-oxo-pyrrolidin-1-yl)-phenylamino]-pyrimidin-4-ylamino}-propyl)-amide. Hydrochloride salt] | – | – | – | – | – | – | 89% | 81% | 71% | 59% | 70% | 29% | 88% | 75% | 90% | 64% | 101% | 93% | 81% | 78% | –
4 | O=C(NCCCNc1nc(Nc2cccnc2)ncc1C1CC1)c1cccs1 [Example 50, Thiophene-2-carboxylic acid {3-[5-cyclopropyl-2-(pyridin-3-ylamino)-pyrimidin-4-ylamino]-propyl}-amide] | – | – | – | – | – | – | 99% | 65% | 86% | 57% | 33% | 5% | 101% | 66% | 82% | 60% | 100% | 89% | 84% | 57% | –
